# Measurements reported in US4889860A (Nova Pharmaceutical Corporation, priority 1987, dated 1989).
# Where two headings read alike, the source gives them in different places.
# Key:
# [1] = system: bombesin-induced scratching; experiment: bombesin-induced scratching test; format: in vivo; settings: sc; subcutaneous; read-out: mean A50, bombesin-induced scratching
# From the text: (Cowan A. Trendsin Pharmacology Science, 7:69-72, 1986) With this test the intracerebroventricular administration of bombesin produces a characteristic scratching response.
# [2] = system: tail flick response; experiment: radiant heat tail flick analgesia in rats; format: in vivo, rat; settings: for ED50: Rattus norvegicus; for dose producing approximately equal analgesia: tail flick, through 3.5 hr
# Method: The analgesic properties of the compounds prepared in accordance with Examples III and IV were evaluated in rats using the radiant heat and tail flick paradigm. […] Flick latencies in FIGS. 11-13 were determined at 30 minute intervals through 3.5 h and the data was expressed as a percentage of the maximum possible effect (% MPE). A 15 sec. cut-off latency was used to minimize tissue damage. The values shown are the mean values for 6 rats.
# (§1) A 15 sec. cut-off latency was used to prevent tissue damage.
# The analgesic properties of compounds XXII and XXIII were evaluated in rats using the writhing assay and tail flick paradigm. […] The writhing assay which uses a chemical stimulus to produce pain, is believed to be more sensitive to kappa agonist activity than other measures of analgesia which uses a heat stimulus (Dykstra, L.A. Behavioral Pharmacology: The Current Status, N.Y.: Allan R. Liss. Inc. 1985).
# [3] = deaths of rats during tail flick experiment at high doses; settings: S.C.
# From the text: as §1
# [4] = target: T1, mu-type opioid receptor (Rattus norvegicus, UniProt P33535); experiment: inhibition of specific [^3 H] DAGO binding to rat forebrain membranes
# T1 construct: using rat forebrain membranes; from tissue; host or cells: rat forebrain membranes
# Method: (§2) The interaction of some of the novel compounds with mu and delta-type opioid receptors present in brain membranes was examined in vitro. […] DAGO (mu-type receptor) or [^3 H] DADLE (delta-type receptor) was determined using rat forebrain membranes. Computer assisted analysis (EBDA) was used to determine apparent Ki values for the various compounds.
# (§3) Values represent the MEAN±S.E.M. of the Ki(nM) for each compound to inhibit specific binding of the indicated ligand to rat brain membranes. The values are from two-five separate experiments and were calculated according to the method of Cheng and Prusoff [Biochem. Pharmacol. 1973, 22, 3099-3108] together with the EBDA Program. Numbers in parentheses are the mean Hill coefficients for each compound to inhibit ligand binding.
# as §3, with “two.div.seven” for “two-five”, “Prusoff” for “Prusoff [Biochem. Pharmacol. 1973, 22, 3099-3108]”, “program.” for “Program.”, “binding. N.D.=not determined” for “binding.”
# (§4) The interaction of some of the novel compounds with mu, delta and kappa - type opioid receptors present in brain membranes was examined in vitro. […] DAGO (mu-type receptor), or [^3 H] DADLE (Delta-type receptor) using rat forebrain membranes and [^3 H] EKC (kappa-type receptor) using guiniea pig cerebellum membrane was determined. Computer assisted analysis (EBDA) was used to determine apparent Ki values for the various compounds.
# (§5) The values represent the MEAN±S.E.M. of the Ki(nM) for each compound to inhibit specific binding of the indicated ligand. Each value represents the mean of three individual experiments performed on separate occasions.
# [5] = target: delta-type opioid receptor (Rattus norvegicus, UniProt P33533); experiment: inhibition of specific [^3 H] DADLE binding to rat forebrain membranes
# Method: as §2, §3
# as §3, with “two.div.seven” for “two-five”, “Prusoff” for “Prusoff [Biochem. Pharmacol. 1973, 22, 3099-3108]”, “program.” for “Program.”, “binding. N.D.=not determined” for “binding.”
# as §4, §5
# [6] = system: writhing response; experiment: animal or person; format: in vivo, mouse
# [7] = target: T2, kappa-type opioid receptor (Cavia porcellus, UniProt P41144); experiment: inhibition of specific [^3 H] EKC binding to guinea pig cerebellum membrane; settings: than other compounds or naltrexone
# T2 construct: using guiniea pig cerebellum membrane; from tissue; host or cells: guinea pig cerebellum membranes
# Method: as §4, §5
# [8] = conditioned taste aversion in rats; format: in vivo, rat; settings: I.P., day 10
# Method: The ability of a compound to inhibit feeding may not be related to its anorectic properties, but rather to the ability of that compound to produce a conditioned taste aversion. This possibility was tested in the following experiment. Animals were adapted to water deprivation by restricting their access to water to a single 30 min presentation occurring at the same time every day. Baseline water intakes were determined for 7 days until intakes had stabilized, and animals were assigned to treatment groups based on their intakes on the final baseline day. On the following day (day 8), all rats received a bottle of condensed milk (diluted 2:1 water:milk) in place of the water, and intakes were recorded for 30 min. Fifteen minutes after the milk was removed, rats were administered an I.P. injection of vehicles, LiCl (299.6 μmol/kg) or the compound of Example XII (1.15, 2.31, 11.55 and 23.09 μmol/kg). The compound of Example XII was dissolved in 0.3% acetic acid in a volume of 4 ml/kg. LiCl was dissolved in saline, and serves as a positive control, since it is a compound that reliably produces a strong conditioned taste aversion. This procedure was repeated on day 9. On day 10, all rats were given a two-bottle choice of water or the milk:water solution, and intakes were recorded for 30 min. Data for each experiment were analyzed by one-way ANOVA, and post-hoc comparisons were performed using Dunnett's test.
# The effects of the compound of Example XII in producing a conditioned taste aversion are illustrated in FIGS. 28 and 29. In FIGS. 28 and 29 the data represent the mean ±SEM for each group. **=p<0.01 (Dunnett's test). Abbreviations: SAL, saline; AA, 0.3% acetic acid in distilled water; LiCl, lithium chloride. Doses of the compound of Example XII for each group are expressed in μmole/kg. The number of animals per group: SAL, 4: AA, LiCl and each dose of Example XII, 5. FIG. 28: Total milk intake in ml on day 10. FIG. 29: Preference ratio on day 10.
# [9] = 1 and 2 mg/kg; cited from earlier work
# [10] = Simone et al.; cited from earlier work
# [11] = sc, 0.5 h, S.C., 30 min, read-out: ED50, tail flick analgesia
# [12] = Ki, inhibition of specific [^3 H] DAGO binding, Tables 1 and 2, rat brain membranes, MEAN±S.E.M.
# [13] = read-out: Ki, inhibition of specific [^3 H] DADLE binding, Tables 1 and 2, rat brain membranes, MEAN±S.E.M.
# T1 sequence (P33535 whole entry): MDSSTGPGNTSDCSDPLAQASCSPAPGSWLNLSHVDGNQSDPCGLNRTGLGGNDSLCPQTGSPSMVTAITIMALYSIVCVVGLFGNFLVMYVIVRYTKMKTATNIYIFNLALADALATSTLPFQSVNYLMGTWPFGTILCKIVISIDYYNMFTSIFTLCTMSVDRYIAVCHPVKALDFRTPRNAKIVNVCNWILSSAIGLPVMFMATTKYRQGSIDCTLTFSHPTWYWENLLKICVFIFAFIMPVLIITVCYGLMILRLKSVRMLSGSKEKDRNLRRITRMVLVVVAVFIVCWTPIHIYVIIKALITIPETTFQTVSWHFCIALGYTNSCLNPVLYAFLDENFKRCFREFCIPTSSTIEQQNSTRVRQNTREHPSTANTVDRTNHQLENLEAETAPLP
# Sequence of delta-type opioid receptor (P33533 whole entry): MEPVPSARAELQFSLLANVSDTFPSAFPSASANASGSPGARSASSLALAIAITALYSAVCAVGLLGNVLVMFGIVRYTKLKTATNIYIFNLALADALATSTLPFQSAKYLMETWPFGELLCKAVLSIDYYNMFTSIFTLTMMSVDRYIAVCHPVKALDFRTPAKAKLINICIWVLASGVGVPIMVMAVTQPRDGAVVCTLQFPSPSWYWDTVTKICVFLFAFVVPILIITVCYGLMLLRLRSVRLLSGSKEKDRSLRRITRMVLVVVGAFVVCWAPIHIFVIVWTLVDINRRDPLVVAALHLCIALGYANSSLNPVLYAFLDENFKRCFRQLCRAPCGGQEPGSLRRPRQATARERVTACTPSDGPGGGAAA
# T2 sequence (P41144 whole entry): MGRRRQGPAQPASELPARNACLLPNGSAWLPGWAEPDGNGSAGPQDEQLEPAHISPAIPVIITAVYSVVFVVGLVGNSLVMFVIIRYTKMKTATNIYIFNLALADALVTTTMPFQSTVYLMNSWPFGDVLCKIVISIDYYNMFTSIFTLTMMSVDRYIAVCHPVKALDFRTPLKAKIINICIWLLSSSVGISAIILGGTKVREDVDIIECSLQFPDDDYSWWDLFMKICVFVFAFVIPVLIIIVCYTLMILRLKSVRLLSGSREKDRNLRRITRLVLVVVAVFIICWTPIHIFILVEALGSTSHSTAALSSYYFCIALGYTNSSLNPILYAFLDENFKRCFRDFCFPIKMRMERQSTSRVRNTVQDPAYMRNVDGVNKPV
smiles,measurement,setting,value
Oc1ccc2c3c1O[C@H]1C(=NOCCCc4ccccc4)CC[C@@]4(O)[C@@H](C2)N(CC2CC2)CC[C@]314 [6[3-phenylpropyl] oximino naltrexone],ED50,[1],0.08 mg/kg
"CN1CC[C@]23c4c5ccc(O)c4O[C@H]2C(=NOCc2ccccc2)CC[C@@]3(O)[C@H]1C5 [Example III, 6-Benzyloximino-17-methyl-4,5 α-epoxy-3, 14-dihydroxymorphinan]",ED50,[2]; [11],0.64 µmol/kg
same,dose producing approximately equal analgesia,[2]; S.C.,~2.21 µmol/kg
same,number of deaths out of six rats,[3]; 8.85 μmole/kg,1
same,number of deaths out of six rats,[3]; 17.7 μmole/kg,3
same,number of deaths out of six rats,[3]; 26.6 μmole/kg,3
same,Ki,[4]; [12],1.58 ± 0.07 nM
same,Ki,[5]; [13],2.8 ± 1.6 nM
"CN1CC[C@]23c4c5ccc(O)c4O[C@H]2C(=NOc2ccccc2)CC[C@@]3(O)[C@H]1C5 [Example IV, 6-Phenyloximino-17-methyl-4,5 α-epoxy-3, 14-dihydroxymorphinan]",ED50,[2]; [11],0.18 µmol/kg
same,dose producing approximately equal analgesia,[2]; S.C.,~1.12 µmol/kg
same,number of deaths out of six rats,[3]; 4.48 μmole/kg,1
same,number of deaths out of six rats,[3]; 8.95 μmole/kg,1
same,number of deaths out of six rats,[3]; 13.4 μmole/kg,2
same,Ki,[4]; [12],0.84 ± 0.09 nM
same,Ki,[5]; [13],0.91 ± 0.1 nM
Oc1ccc2c3c1O[C@H]1C(=NOCCCc4ccccc4)CC[C@@]4(O)[C@@H](C2)N(CC2CC2)CC[C@]314 [Example XXIII],ED50,"[2]; Table 7, read-out: ED50, Antagonism of the Tail-Flick Response in the Rat",1.84 mg/kg
same,antagonism of tail-flick response to heat,[2]; rat,effectively antagonized the tail-flick response to a heat stimulus in the rat
same,ED50,"[6]; Mus musculus, Table 7, read-out: ED50, Acetic Acid Induced Writhing in the Mouse",0.02 mg/kg
same,potency versus morphine to antagonize writhing response,"[6]; mouse, in vivo, ip",more potent than morphine to antagonize the writhing response
same,kappa selectivity and agonist activity,[6]; writhing and tail flick,selective to kappa receptors and possess kappa agonist activity
same,Ki,"[4]; read-out: (Ki) nM, μ receptor (Rat Forebrain), Table 6, [^3 H] DAGO, mean of three experiments",0.32 nM
same,fold more potent to inhibit specific [3H]EKC,[7],100 fold
same,Ki,"[5]; read-out: (Ki) nM, δ receptor (Rat Forebrain), Table 6, [^3 H] DADLE, mean of three experiments",0.44 nM
"[Cl-].[Li+] [LiCl, lithium chloride, reference compound]","conditioned taste aversion (milk intake, preference ratio)",[8],significant decreases in milk intake and in the preference ratio were evident only for LiCl
COC(=O)CON=C1CC[C@@]2(O)[C@H]3Cc4ccc(OC)c5c4[C@@]2(CCN3CC2CC2)[C@H]1O5 [N-cyclopropylmethyl-nor-14-hydroxydihydrocodeinone-6-carboxymethyl methyl ester],suppression of symptoms in morphine dependent monkeys,[9],partial suppression of symptoms was obtained
C=CCN1CC[C@]23c4c5ccc(O)c4O[C@H]2/C(=N/N=C2\CC[C@@]4(O)[C@H]6Cc7ccc(O)c8c7[C@@]4(CCN6CC=C)[C@H]2O8)CC[C@@]3(O)[C@H]1C5 [naloxonazine],inhibition of overnight feeding,[10],inhibition of overnight feeding
